# Results reported in patent US20250092022A1, “MUSCARINIC RECEPTOR 4 ANTAGONISTS AND METHODS OF USE” (Neurocrine Biosciences, Inc., priority 2021, published 2025).
# Biological target: human M4 receptor (Homo sapiens (Human), UniProt P08173)
# Assay: Binding assay: inhibition of radioligand (tritiated N-methylscopolamine) binding to membranes from CHO cells expressing human M4 receptor
# Conditions: CHO cell membranes, 1.5 nM tritiated N-methylscopolamine
# Description: Binding affinity (Ki) for the compounds was measured by inhibition of radioligand binding to membranes from CHO cells expressing human M4 receptor. Membranes were prepared by nitrogen cavitation and differential centrifugation as previously described (Hoare et al., Mol. Pharmacol. 2003 March; 63(3): 751-65). The radioligand employed was tritiated N-methylscopolamine, used at a concentration of 1.5 nM. A dose-response of twelve concentrations of compound was used, ranging from […]. The assay buffer was 50 mM HEPES, 100 mM NaCl, 5 mM MgCl2, 1 mM ethylenediaminetetraacetic acid, pH-adjusted to pH 7.4. Membranes, radioligand and compound were incubated together for 90 minutes at 37° C., in a total volume of 150 μL in a 96-well plate. Receptor-bound radioligand was then collected by harvesting the assay over glass fiber filters pretreated with polyethylenimine to trap the cell membranes, using rapid vacuum filtration. Harvesting and radioactivity counting was conducted as previously described (see, e.g., Hoare et al., Mol. Pharmacol. 2003 63(3):751-65); Erratum at Mol. Pharmacol. 2005 July; 68(1): 260).
# human M4 receptor, sequence (P08173 whole entry): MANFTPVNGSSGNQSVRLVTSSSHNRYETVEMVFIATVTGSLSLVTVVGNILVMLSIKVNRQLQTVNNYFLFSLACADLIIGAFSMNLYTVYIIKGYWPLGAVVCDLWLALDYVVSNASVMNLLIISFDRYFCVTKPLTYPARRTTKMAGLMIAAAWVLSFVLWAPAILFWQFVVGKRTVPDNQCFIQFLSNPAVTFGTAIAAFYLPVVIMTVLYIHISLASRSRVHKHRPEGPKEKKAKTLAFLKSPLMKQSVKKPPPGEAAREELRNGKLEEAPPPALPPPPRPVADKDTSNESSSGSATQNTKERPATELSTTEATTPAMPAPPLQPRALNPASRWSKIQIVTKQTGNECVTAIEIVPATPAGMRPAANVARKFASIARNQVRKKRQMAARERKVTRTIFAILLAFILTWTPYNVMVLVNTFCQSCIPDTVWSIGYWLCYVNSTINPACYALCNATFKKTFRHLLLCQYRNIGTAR
row,SMILES,Ki [nM]
1,"C[C@@H]1CN(c2ncc(S(C)(=O)=O)cn2)C[C@H](C)N1C(=O)OC1CC2(C1)CN(Cc1ccc(F)cc1)C2 [Compound 38, 2-[(4-fluorophenyl)methyl]-2-azaspiro[3.3] heptan-6-yl (2R,6S)-4-(5-methanesulfonylpyrimidin-2-yl)-2,6-dimethyl-piperazine-1-carboxylate]",< 100
2,"C[C@@H]1CN(c2ncc(S(C)(=O)=O)cn2)[C@@H](C)CN1C(=O)NC1CC2(C1)CN(Cc1ccccc1)C2 [Compound 4, (2R,5S)-N-{2-benzyl-2-azaspiro[3.3]heptan-6-yl}-4-(5-methanesulfonyl-pyrimidin-2-yl)-2,5-dimethylpiperazine-1-carboxamide]",100 to 500
3,"C[C@@H]1CN(c2ncc(S(C)(=O)=O)cn2)C[C@H](C)N1C(=O)OC1CC2(C1)CN(Cc1ccc(Cl)cc1)C2 [Compound 36, 2-[(4-chlorophenyl)methyl]-2-azaspiro[3.3] heptan-6-yl (2R,6S)-4-(5-methanesulfonylpyrimidin-2-yl)-2,6-dimethyl-piperazine-1-carboxylate]",< 100
4,"CCS(=O)(=O)c1cnc(N2CCN(C(=O)NC3CC4(C3)CN(Cc3ccccc3)C4)[C@H](C)C2)nc1 [Compound 7, (2R)-N-{2-benzyl-2-azaspiro[3.3]heptan-6-yl}-4-[5-(ethanesulfonyl)pyrimidin-2-yl]-2-methylpiperazine-1-carboxamide]",100 to 500
5,"CC[C@H](O)COc1cnc(N2C[C@@H](C)N(C(=O)OC3CC4(C3)CN(Cc3ccccc3)C4)[C@@H](C)C2)nc1 [Compound 57, 2-benzyl-2-azaspiro [3.3]heptan-6-yl (2R,6S)-4-{5-[(2S)-2-hydroxybutoxy]pyrimidin-2-yl}-2,6-dimethyl-piperazine-1-carboxylate]",100 to 500
6,"C[C@@H]1CN(c2ncc(S(=O)(=O)C3CC3)cn2)CCN1C(=O)NC1CC2(C1)CN(Cc1ccccc1)C2 [Compound 8, (2R)-N-{2-benzyl-2-azaspiro[3.3]heptan-6-yl}-4-[5-(cyclopropanesulfonyl)pyrimidin-2-yl]-2-methylpiperazine-1-carboxamide]",100 to 500
7,"C[C@@H]1CN(c2ncc(S(=O)(=O)C3CC3)cn2)C[C@H](C)N1C(=O)NC1CC2(C1)CN(Cc1ccccc1)C2 [Compound 3, (2R,6S)-N-{2-benzyl-2-azaspiro[3.3]heptan-6-yl}-4-[5-(cyclopropanesulfonyl)pyrimidin-2-yl]-2,6-dimethylpiperazine-1-carboxamide]",< 100
8,"COc1ccc(CN2CC3(CC(OC(=O)N4[C@H](C)CN(c5ncc(S(C)(=O)=O)cn5)C[C@@H]4C)C3)C2)cc1 [Compound 60, 2-[(4-methoxyphenyl)methyl]-2-azaspiro[3.3] heptan-6-yl (2R,6S)-4-(5-methanesulfonylpyrimidin-2-yl)-2,6-dimethyl-piperazine-1-carboxylate]",< 100
9,"C[C@@H]1CN(c2ncc(S(C)(=O)=O)cn2)[C@@H](C)CN1C(=O)OC1CC2(C1)CN(Cc1ccc(Cl)cc1)C2 [Compound 37, 2-[(4-chlorophenyl)methyl]-2-azaspiro[3.3] heptan-6-yl (2R,5S)-4-(5-methanesulfonylpyrimidin-2-yl)-2,5-dimethyl-piperazine-1-carboxylate]",< 100

# The remaining lines, values ahead:
row,Ki [nM],SMILES
1,≥ 500,"C[C@@H]1CN(c2ncc(OCC(O)CF)cn2)C[C@H](C)N1C(=O)OC1CC2(C1)CN(Cc1ccccc1)C2 (stereo partly drawn) [Compound 53, 2-benzyl-2-azaspiro [3.3]heptan-6-yl (2R,6S)-4-[5-(3-fluoro-2-hydroxypropoxy)pyrimidin-2-yl]-2,6-dimethyl-piperazine-1-carboxylate]"
2,≥ 500,"C[C@@H]1CN(c2ncc(N3CCC3=O)cn2)C[C@H](C)N1C(=O)OC1CC2(C1)CN(Cc1ccccc1)C2 [Compound 29, 2-benzyl-2-azaspiro [3.3]heptan-6-yl (2R,6S)-2,6-dimethyl-4-[5-(2-oxoazetidin-1-yl)pyrimidin-2-yl] piperazine-1-carboxylate]"
3,< 100,"Cc1nc(N2C[C@@H](C)N(C(=O)OC3CC4(C3)CN(Cc3ccccc3)C4)C[C@@H]2C)ncc1S(C)(=O)=O [Compound 25, 2-benzyl-2-azaspiro [3.3]heptan-6-yl (2R,5S)-4-(5-methane-sulfonyl-4-methyl-pyrimidin-2-yl)-2,5-dimethylpiperazine-1-carboxylate]"
4,≥ 500,"C[C@@H]1CN(c2ncc(O)cn2)C[C@H](C)N1C(=O)OC1CC2(C1)CN(Cc1ccccc1)C2 [Compound 51, 2-benzyl-2-azaspiro [3.3]heptan-6-yl (2R,6S)-4-(5-hydroxypyrimidin-2-yl)-2,6-dimethyl-piperazine-1-carboxylate]"
5,100 to 500,"C[C@@H]1CN(c2ncc(S(C)(=O)=O)cn2)CCN1C(=O)OC1CC2(C1)CN(Cc1ccccc1)C2 [Compound 13, 2-benzyl-2-azaspiro [3.3]heptan-6-yl (2R)-4-(5-methanesulfonyl-pyrimidin-2-yl)-2-methylpiperazine-1-carboxylate]"
6,< 100,"C[C@@H]1CN(c2ncc(S(=O)(=O)C(F)F)cn2)[C@@H](C)CN1C(=O)OC1CC2(C1)CN(Cc1ccccc1)C2 [Compound 24, 2-benzyl-2-azaspiro [3.3]heptan-6-yl (2R,5S)-4-(5-difluoromethanesulfonyl-pyrimidin-2-yl)-2,5-dimethylpiperazine-1-carboxylate]"
7,< 100,"C[C@@H]1CN(c2ncc(S(=O)(=O)C3CC3)cn2)CCN1C(=O)OC1CC2(C1)CN(Cc1ccccc1)C2 [Compound 22, 2-benzyl-2-azaspiro [3.3]heptan-6-yl (2R)-4-[5-(cyclopropanesulfonyl)pyrimidin-2-yl]-2-methylpiperazine-1-carboxylate]"
8,< 100,"CCS(=O)(=O)c1cnc(N2CCN(C(=O)OC3CC4(C3)CN(Cc3ccccc3)C4)[C@H](C)C2)nc1 [Compound 21, 2-benzyl-2-azaspiro [3.3]heptan-6-yl (2R)-4-[5-(ethanesulfonyl)-pyrimidin-2-yl]-2-methylpiperazine-1-carboxylate]"
9,100 to 500,"C[C@@H]1CN(c2ncc(OCC(O)C(F)F)cn2)C[C@H](C)N1C(=O)OC1CC2(C1)CN(Cc1ccccc1)C2 (stereo partly drawn) [Compound 54, 2-benzyl-2-azaspiro [3.3]heptan-6-yl (2R,6S)-4-[5-(3,3-difluoro-2-hydroxypropoxy)pyrimidin-2-yl]-2,6-dimethylpiperazine-1-carboxylate]"
10,< 100,"C[C@@H]1CN(c2ncc3c(n2)CS(=O)(=O)C3)C[C@H](C)N1C(=O)OC1CC2(C1)CN(Cc1ccccc1)C2 [Compound 43, 2-benzyl-2-azaspiro [3.3]heptan-6-yl (2R,6S)-4-dioxo-5H,7H-6λ^6-thieno [3,4-d]pyrimidin-2-yl}-2,6-dimethylpiperazine-1-carboxylate]"
11,< 100,"C[C@@H]1CN(c2ncc(S(=O)(=O)C3CC3)cn2)[C@@H](C)CN1C(=O)OC1CC2(C1)CN(Cc1ccccc1)C2 [Compound 20, 2-benzyl-2-azaspiro [3.3]heptan-6-yl (2R,5S)-4-[5-(cyclo-propanesulfonyl)pyrimidin-2-yl]-2,5-dimethyl-piperazine-1-carboxylate]"
12,100 to 500,"C[C@@H]1CN(c2ncc(OC[C@@H](C)O)cn2)C[C@H](C)N1C(=O)OC1CC2(C1)CN(Cc1ccccc1)C2 [Compound 56, 2-benzyl-2-azaspiro [3.3]heptan-6-yl (2R,6S)-4-{5-[(2R)-2-hydroxypropoxy]pyrimidin-2-yl}-2,6-dimethyl-piperazine-1-carboxylate]"
